Test system: E. coli
Test: Minimum Inhibition Concentration, bacterial recovery grading
Assay type: cell-based
Design: key: −: No bacterial recovery.; +: Trace of contamination (<10colonies).; ++: Light contamination (>100 colonies).; +++: Heavy contamination (continuous smear of growth)
Conditions: E. coli OD 0.441, 2.68 × 10^8 cell/mL

Measured: Bacterial growth (Minimum Inhibition Concentration)

thiourea [Thiourea Ctrl]
−: 1000000 ppm (mg/L)
+++: 0.0001 ppm (mg/L) | 0.001 ppm (mg/L) | 0.01 ppm (mg/L) | 0.1 ppm (mg/L) | 1 ppm (mg/L) | 10 ppm (mg/L) | 100 ppm (mg/L) | 1000 ppm (mg/L) | 10000 ppm (mg/L) | 100000 ppm (mg/L)

— patent US20210024756A1, “STABILIZED COPPER GLASS” (CORNING INCORPORATED, priority 2018, published 2021)
